Legend:
[1] = test system: rat pheochromocytoma cells; conditions: Schmidt, et al. (19); cited from earlier work
[2] = test system: Hippocampal neurons; assay: Neurite outgrowth in hippocampal neurons; assay type: cell-based, rat; conditions: HC neurons, 48 hours, SEM in parentheses
Procedure: Hippocampal neurons: The hippocampi of gestational day 18 rat embryos were dissected out, incubated in trypsin (0.08%, 30 min at 37° C.) and dissociated mechanically (16). Hippocampal cells were resuspended in neurobasal medium supplemented with B27, anti-oxidants, 1 mM glutamine, 25 μM glutamate, 1 mM pyruvate. For outgrowth assays, cells were plated at a density of 3000 cells/well into 96 well dishes that had previously been coated with poly-D-lysine followed by 10% FCS and cultured for 48 hours.
The test compound was solubilised in DMSO and added to culture medium at time of cell plating at a dilution of 1:1000. Vehicle only (1:1000) was added to culture medium of untreated controls. Cells were fixed with 4% paraformaldehyde for 1 hour on ice, washed with PBS and stained using Coomassie. Assays were quantified using a KS300 image analysis system (Imaging Associates, UK). For each cell measured, the length from the edge of the cell to the end of the longest neurite was measured for 100 cells/well for each treatment in triplicate. All data are means and SEM pooled from three independent experiments. Results are expressed as a percentage of the length of neurites of cells treated with vehicle alone.

[3] = target: T1, LXRβ protein (Homo sapiens, UniProt P55055); conditions: 1 μM; over a background reading of 10000 fluorescence units; cited from earlier work
T1 sequence (P55055 1-460): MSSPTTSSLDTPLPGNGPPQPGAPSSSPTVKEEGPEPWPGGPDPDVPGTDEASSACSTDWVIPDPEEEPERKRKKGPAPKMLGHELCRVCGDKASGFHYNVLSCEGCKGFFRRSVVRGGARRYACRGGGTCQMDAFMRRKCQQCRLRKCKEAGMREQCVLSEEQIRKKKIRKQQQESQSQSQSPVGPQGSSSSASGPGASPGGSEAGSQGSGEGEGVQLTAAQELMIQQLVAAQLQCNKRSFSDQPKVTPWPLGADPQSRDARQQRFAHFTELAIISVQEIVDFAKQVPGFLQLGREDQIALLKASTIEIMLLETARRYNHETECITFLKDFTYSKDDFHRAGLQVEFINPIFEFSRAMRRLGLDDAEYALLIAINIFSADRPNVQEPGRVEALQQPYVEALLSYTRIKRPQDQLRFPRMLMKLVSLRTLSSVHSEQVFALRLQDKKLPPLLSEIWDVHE

## CCCCCCCCCCCCCCOc1ccc(C(=O)O)o1 [5-tetradecyloxy-2-furancarboxylic acid]
[1]
  neuronal differentiation: induced neuronal differentiation

## CC(C)CC[C@@H](O)[C@@H](C)[C@H]1CC[C@H]2[C@@H]3CC=C4C[C@@H](O)CC[C@]4(C)[C@H]3CC[C@]12C [22(R) hydroxychol., 22(R)-hydroxycholesterol, reference compound]
[2]; 0.3 μm test compound
  length of longest neurite, percentage of cells treated with vehicle alone: 115.9 (6.02) %
[2]; 1.0 μm test compound
  length of longest neurite, percentage of cells treated with vehicle alone: 116 (7.45) %
[2]; 3.0 μm test compound
  length of longest neurite, percentage of cells treated with vehicle alone: 129.9 (4.12) %
[2]; 10.0 μm test compound
  length of longest neurite, percentage of cells treated with vehicle alone: 127.9 (6.18) %
[1]
  neuronal differentiation: induced neuronal differentiation

## C[C@H](CC[C@@H]1OC1(C)C)[C@H]1CC[C@H]2[C@@H]3CC=C4C[C@@H](O)CC[C@]4(C)[C@H]3CC[C@]12C [24(S), 25-epoxycholesterol]
[3]
  fluorescence reading: 20000 fluorescence units

Source: US20050171084A1, “Methods of treatment with lxr modulators” (priority 2002, published 2005)
